One series concerns the target Carbonic anhydrase 12 (Homo sapiens, UniProt O43570). In words: Inhibition of human recombinant CA12 catalytic domain expressed in Sf9 cells by stopped flow CO2 hydration assay.
Another series addresses Carbonic anhydrase 9 (Homo sapiens, UniProt Q16790). In kind it is cell-based, Sf9.
A short description of series [1]: Solubility in water. Format: physicochemical. The conditions noted are these: buffer.

Carbonic anhydrase 12, sequence (O43570 whole entry, the tested form may be a part): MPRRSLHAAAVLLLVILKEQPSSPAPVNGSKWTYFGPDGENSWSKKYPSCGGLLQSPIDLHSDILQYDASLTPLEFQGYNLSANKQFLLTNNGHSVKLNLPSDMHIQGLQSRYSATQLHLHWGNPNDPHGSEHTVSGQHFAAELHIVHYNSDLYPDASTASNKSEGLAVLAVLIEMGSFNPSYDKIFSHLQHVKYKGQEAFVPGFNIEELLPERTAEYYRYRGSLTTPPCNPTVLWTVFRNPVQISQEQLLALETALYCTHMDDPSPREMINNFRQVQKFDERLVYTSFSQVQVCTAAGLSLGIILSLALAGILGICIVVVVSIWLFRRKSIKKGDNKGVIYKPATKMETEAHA
Description for Carbonic anhydrase 9: Inhibition of human recombinant CA9 catalytic domain expressed in Sf9 cells by stopped flow CO2 hydration assay

Usually Ki stands for a measure of affinity in units of concentration, obtained from inhibition or displacement. For the molecule `CN(C)c1ccc(/N=N/c2ccc(S(N)(=O)=O)cc2)cc1`, the Ki on Carbonic anhydrase 12 turned out to be 7.9 nM. Turning to `CNc1ccc(/N=N/c2ccc(S(N)(=O)=O)cc2)cc1`, the Ki at Carbonic anhydrase 9 came to 4.9 nM; on Carbonic anhydrase 12 it was 69.4 nM. In the case of `NS(=O)(=O)c1cccc(/N=N/c2ccc(NCS(=O)(=O)O)cc2)c1`, at Carbonic anhydrase 9, the Ki was 57 nM. Turning to `CN(C)c1ccc(/N=N/c2cccc(S(N)(=O)=O)c2)cc1`, the Ki at Carbonic anhydrase 9 came to 6.4 nM.

`O=S(=O)(O)CNc1ccccc1` [SODIUM PHENYLAMINOMETHANESULFONATE] yielded a Ki at Carbonic anhydrase 9 of 5100 nM. On the same count and under the same terms, with `CN(CS(=O)(=O)O)c1ccccc1` [SODIUM(METHYL(PHENYL)AMINO)METHANESULFONATE] the figure was 5850 nM. Consider `Nc1ccc(/N=N/c2cccc(S(N)(=O)=O)c2)cc1`, for which the affinity on Carbonic anhydrase 9, expressed as Ki, was 5.9 nM. Regarding `CN(CS(=O)(=O)O)c1ccc(/N=N/c2cccc(S(N)(=O)=O)c2)cc1`, affinity at Carbonic anhydrase 9 was put at a Ki of 63 nM. As for `NS(=O)(=O)c1ccc(/N=N/c2ccc(O)cc2)cc1`, the Ki on Carbonic anhydrase 9 came to 6.4 nM; on Carbonic anhydrase 12, 5 nM. `CN(CS(=O)(=O)[O-])c1ccc(/N=N/c2ccc(S(N)(=O)=O)cc2)cc1.[Na+]`: on Carbonic anhydrase 9, the Ki is 3.5 nM. Moreover, in series [1], the solubility entry is recorded as “Soluble”. In turn, `NS(=O)(=O)c1ccc(/N=N/c2ccc(NCS(=O)(=O)[O-])cc2)cc1.[Na+]` yielded a Ki at Carbonic anhydrase 9 of 5.4 nM. The solubility entry in series [1] is reported as “Soluble”.

Take `NS(=O)(=O)c1cccc(/N=N/c2ccc(O)cc2)c1`: the Ki turned out to be 6.1 nM at Carbonic anhydrase 9 and 7.3 nM on Carbonic anhydrase 12.

Molecule `Nc1ccc(/N=N/c2ccc(S(N)(=O)=O)cc2)cc1` registered a Ki on Carbonic anhydrase 9 of 6 nM.

Source of the values: ChEMBL document CHEMBL1152620, “Carbonic anhydrase inhibitors. Diazenylbenzenesulfonamides are potent and selective inhibitors of the tumor-associated isozymes IX and XII over the cytosolic isoforms I and II” (Bioorg Med Chem, 2009).
